Experimental data published in patent US5367062A, “Disubstituted and deoxydisubstituted derivatives of α-d-lyxofuranosides having anti-inflammatory and anti-proliferative activity” (Medicarb Inc., priority 1992, dated 1994).
Where a name gives a salt, the structure may show the parent alone.

Columns and labels:
[1] = system: rheumatoid arthritis; details: cited from earlier work
[2] = system: various tumor cell lines, derived from seven cancer types; test: Tumor cell line screens (leukemia, melanoma, lung, colon, renal, ovarian, brain cancer); type: cell-based; details: average over tumor cell lines; read-out: GI (Average GI50) (converted)
Procedure: The compounds of the present invention were also tested against various tumor cell lines, derived from seven cancer types. These include leukemia, melanoma, lung cancer, colon cancer, renal cancer, ovarian cancer, and brain cancer. Most of the compounds have shown significant activity in various screens, particularly against colon cancer and melanoma.

[3] = system: mouse spleen cells; test: Concanavalin A assay (mouse spleen cell mitogen induced blastogenesis); type: cell-based; details: 72 h, estimated, Con-A 1.25 μg/ml, 3 days, MTT
Source text: iii Concanavalin A assay (the mouse spleen cell mitogen induced blastogenesis).
(§1) The MLR assay measures the effects of a study compound on the activation and antigen presentation of T-lymphocytes, therefore determining immunomodulatory properties. The mouse spleen cell mitogen-induced blastogenesis and the BUD-8 human fibroblast proliferation assays measure the effects of the compounds of the present invention on cellular proliferation of cells involved in the pathogenesis of autoimmune diseases. These two assays are appropriate as screens to ascertain anti-inflammatory and/or autoimmune diseases.
It is known that the induction and maintenance of most inflammatory diseases are typically due to the unrestricted activity of T-lymphocytes. Therefore, it is advantageous to identify compounds which are modulators of T-lymphocyte activity for eventual use in the regulation of inflammatory diseases, including acquired immune deficiency syndrome, psoriasis, systemic lupus, erythromatosus, and rheumatoid arthritis.
A simple method is used to screen compounds for their ability to modulate T-lymphocyte activity which comprises assessing the capacity of the compounds to alter the activation of murine spleen cells in response to T-lymphocyte mitogen activators, such as Conconavalin-A (Con-A). The method used to measure the effects of the compounds of the present invention on the blastogenic response of spleen cells to the T-lymphocyte mitogen (Con-A) is as follows:
The response of a mouse spleen cells to the T cell mitogen ConA is a classical assay. In this assay, mice were euthanized by cervical dislocation and their spleens removed surgically. A single cell suspension of the spleens was prepared in culture medium (RPMI-1640 with hepes, supplemented with 10% calf serum, 2 mM glutamine, 500 units penicillin/streptomycin, and 4×10^-5 M 2-mercaptoethanol) using a Teflon pestle. The cells were centrifuged at 1500 RPM and the pellets resuspended in ACT (0.15 M Tris, 0.14 M Ammonium chloride, pH 7.2) in order to lyse the red blood cells. After a five minutes incubation in 37° C. waterbath, the cells were washed and resuspended in culture medium. The splenic lymphocytes were counted using an electronic Coulter Counter and diluted to 5.0×10^6 cells/mi.
The test articles were diluted in culture medium to the appropriate concentrations. Aliquots 100 μl were distributed to triplicate wells in a 96-well microtiter plate. 50 μl of lymphocytes (2.5×10^5 cells) were added to each well. Control wells with vehicle and wells with media were also run. Plates were incubated for one hour at 37° C. 50 μl of Con-A (5 μl/ml) were then added to the wells to result in a final concentration of 1.25 μg/ml. After incubation at 37° C. with 5% carbon dioxide for 3 days, proliferation was measured by adding 20 μl of MTT (10 mg/mlin PBS) [3-(4,5-dimethyl-thiazol-2-yl)-2,5-diphenyltetrazoliumbromidel to each well. Plates were incubated for 4 hours at 37° C., after which 180 μl of 10% SDS in PBS were added. After an overnight incubation, the optical density (OD) of each well was read using a Molecular Devices microplate reader at 570-650 nm.
(§2) Duplicate cultures without Con-A were also set up. After 3 days of incubation, supernatants were assayed for lactate dehydrogenase activity to determine the viability of the cells, which is an indication of the toxicity of the test article on the splenic lymphocytes. 0.1 ml of supernatant was mixed with 0.1 ml of the LDH substrate mixture which contains 5.4×10^-2 M L(+) lactate, 6.6×10^-4 M 2-p-iodophenyl-3-p-nitrophenyl tetrazolium chloride, 2.8×10^-4 M phenazine methosulfate, 1.3×10^-3 M AND, and 0.2 M Tris buffer, pH 8.2. Plates were read immediately for 5 minutes at 490 nm using a Molecular Devices microplate reader.
The mean for each test article treated group was determined and compared to the mean of the control group. The percent change from the control was calculated, and the IC50 was estimated. […]

[4] = system: BUD-8 human fibroblast; test: BUD-8 human cell line fibroblast proliferation assay; type: cell-based; details: 72 h, estimated, BUD-8 cells, 3 days, MTT
Source text: ii BUD-8 human cell line fibroblast proliferation assay.
as §1
The skin cell fibroblast line, BUD-8, was originally derived from the normal skin of a person and can now be obtained from the American Type Culture Collection, Rockville, Md. The concentration of the compounds which were used in this assay were: 1, 10, 30, 100, and 300 μM. The vehicle was used as the negative control. Test compounds were prepared in DMSO at a stock concentration of […]. Appropriate dilutions were made in culture medium.
In this assay BUD-8 cells were collected, counted, and diluted to 2×10^4 cells/ml. 0.1 ml was plated per well to give 2×10^3 cells/well. The compounds of the present invention were diluted in culture medium to the appropriate concentrations. Aliquotes of 100 μl were distributed to triplicate wells. Control wells with vehicle and wells with media were also run. After a three day incubation at 37° C. with 5% carbon dioxide, proliferation was measured by adding 20 μl of MTT (10 mg/ml in PBS) (3-[4,5-dimethyl thiazol-2-yl]-2,5diphenyl-tetrazolium bromide) to each well. Plates were incubated for 4 hours at 37° C., after which 180 μl of 10% SDS in PBS were added. After an overnight incubation, the optical density (OD) of each well was read using a Molecular Devices microplate reader at 570-650 nm.
as §2, with “cultures” for “cultures without Con-A”, “set up to measure viability.” for “set up.”, “dehydrogenase (LDH)” for “dehydrogenase”, “the BUD-8 cells.” for “the splenic lymphocytes.”, “of supernatent” for “of supernatant”, “Tris buffer. PH” for “Tris buffer, pH”
The mean for each test article treated group was determined and compared to the mean of the control group. The percent change from the control was calculated, and the IC50 estimated. The criteria used to establish activity levels were:
Sixteen (16) test articles were assayed for their ability to inhibit fibroblast proliferation. The test article were added to BUD-8 cell cultures to give final concentrations of 1, 10, 30, 100, and 300 μM. The proliferation observed in the test article treated wells were compared to the DMSO control wells.

[5] = system: T cells (BALB/CBYJ responder spleen cells with C57BL/6J stimulator spleen cells); test: Mixed lymphocyte response (MLR); type: cell-based; details: Mus musculus, T-cell, 120 h; estimated; 5 days incubation; MTT
Source text: i Mixed lymphocyte response (MLR).
as §1
The MLR is a classical assay used to measure T cell function by studying the proliferation response of T cells which are activated in vitro by genetically disparate stimulator cells. This is accomplished by co-culturing spleen cells from two different strains of mice. Splenic T cell proliferation occurs as a result of cellular activation signals generated by the ongoing cellular interactions.
In performing MLR assays, BALB/CBYJ mice were euthanized by cervical dislocation and their spleens removed. Single cell suspensions were prepared in culture medium (RPMI-1640 with hepes supplemented with 10% calf serum, 2 mM glutamine, 500 units penicillin/streptomycin and 4×10^-5 M 2-mercaptoethanol) using a Teflon pestle. The cells were centrifuged at 1500 RPM and the pellets resuspended in ACT (0.15 M Tris, 0.14 M ammonium chloride, pH 7.2 ) in order to lyse the red blood cells. After a 5 minutes incubation at 37° C. waterbath, the cells were washed and resuspended in culture medium. The splenic lymphocytes were counted. C57BL/6J spleen cells, which were used as stimulator cells, were prepared in the same way. The stimulator cells were treated with 50 μm/ml of mitomycin C for 20 minutes at 37° C., then washed five times in culture medium. The proliferative response were measured by culturing 5×10^5 responder spleen cells with 5×10^5 stimulator cells in 96-well microtiter plates in the presence or absence of test article or vehicle (DMSO). Syngeneic control cultures using mitomycin C treated normal BALB/C spleen cells as the stimulator cells were also run. All cultures were run in triplicate.
Solutions of compounds of the present invention in DMSO were prepared at a stock concentration of 300 mM. Solutions were made in a culture medium to a concentration of 1, 10, 30, 100, and 300 μM. The vehicle DMSO was used as a negative control.
After incubation for 5 days at 37° C. with 5% carbon dioxide, the amount of cell proliferation was measured by adding 20 μl of MTT (10 mg/ml in PBS) (3-[4,5-dimethylthiazol-2-yl]-2,5-diphenyltetrazolium bromide) to each well. plates were incubated for 4 hours at 37° C., after which 180 μl of supernatant was removed and 180 μl of 10% SDS in PBS was added. After an overnight incubation, the optical density (OD) of each well was read on a Molecular Devices microplate reader at 570-650 nm.
The results were determined by calculating the difference between the means of the allogeneic cultures and the means of the syngeneic cultures for each test compound concentration. Differences of the test article groups were compared to the difference of the control group. The percent change from the control was determined and an IC50 estimated. The criteria used to establish activity levels were:
Sixteen (16) novel compounds were assayed for their ability to modulate a Mixed Lymphocyte Response in vitro. The test compounds were added to MLR cultures to give final concentrations of 1, 10, 30, 100, and 300 μm. The responses observed in the test article treated wells were compared to the control wells. […] Based on the estimated IC50 all the test compounds were strong inhibitors of the MLR.

Compound | GI50 [2] [µM] | Anti-inflammatory activity (in words) ([1]; in vivo) | Utility in managing the signs and symptoms of rheumatoid arthritis (in words) ([1]; late Phase III clinical trials) | IC50 [3] [µM] | IC50 [4] [µM] | IC50 [5] [µM]
CN(C)CCCO[C@@H]1[C@H]2OC(C)(C)O[C@H]2O[C@@H]1[C@H](O)CO [Amiprilose. HCl, 1,2-0-isopropylidene-3-0-3'-(N',N'-dimethylaminopropyl)-α-D-glucofuranose] | – | known to have anti-inflammatory activity | demonstrated utility in managing the signs and symptoms of rheumatoid arthritis | – | – | –
CCCCCCCCCOCCCO[C@H]1O[C@H](COCCN2CCCC2)[C@@H]2OC(C)(C)O[C@H]12 [V, n-Nonyloxypropyl 2,3-0-(1-methlethylidene)-5-0-N'-ethylpyrrolidinyl-α-D-lyxofuranoside] | 5.62 | – | – | 2.9 | 28 | < 1
CCCCCCCCCOCCCO[C@H]1O[C@H](COCCN2CCCCC2)[C@@H]2OC(C)(C)O[C@H]12 [VI, n-Nonyloxypropyl 2,3-0-(1-methlethylidene)-5-0-N'-ethylpiperidinyl-α-D-lyxofuranoside] | – | – | – | 2.7 | > 100 | 0.5
CCCCCCCCCOCCCO[C@H]1O[C@H](CN2CCCC2)[C@@H]2OC(C)(C)O[C@H]12 [XVI] | 5.13 | – | – | 3.5 | 58 | < 1
CCCCCCCCCOCCCO[C@H]1O[C@H](CNCCCN2CCCC2)[C@@H]2OC(C)(C)O[C@H]12 [XXIV, n-Nonyloxypropyl 5-deoxy-2,3-0-(1-methylethylidene)-5-aminopropylpyrrolidinyl-α-D-lyxofuranoside] | – | – | – | 2.5 | 16 | 0.85

The next lines start with results.

GI50 [2] [µM] | Compound | Anti-inflammatory activity (in words) ([1]; in vivo) | Utility in managing the signs and symptoms of rheumatoid arthritis (in words) ([1]; late Phase III clinical trials) | IC50 [3] [µM] | IC50 [4] [µM] | IC50 [5] [µM]
32.4 | CCCCCCCCCNC[C@H]1O[C@H](OCCCc2ccccc2)[C@H]2OC(C)(C)O[C@H]21 [XXIX, Phenylpropyl 5-deoxy-2,3-0-(1-methylethylidene)-5-aminononyl-α-D-lyxofuranoside] | – | – | 5 | 20 | 1.5
95.5 | CC1(C)O[C@@H]2[C@@H](OCCCc3ccccc3)O[C@H](CN3CCCC3)[C@@H]2O1 [XXV, Phenylpropyl 5-deoxy-2,3-0-(1-methylethylidene)-5-pyrrolidinyl-α-D-lyxofuranoside] | – | – | 25 | 200 | 12
91.2 | CN(C)CCCOC[C@H]1O[C@H](OCCCc2ccccc2)[C@H]2OC(C)(C)O[C@H]21 [X] | – | – | 55 | 299 | < 1
